The values that follow come from ChEMBL document CHEMBL1782003, “Development and SAR of functionally selective allosteric modulators of GABAA receptors” (Bioorg Med Chem, 2011).

A short description of this series: physchem. Particulars: DMSO.

≈ marks a conversion by molar mass, not a printed value.

On to `CCC(C)(C)N1Cc2nc3c(-c4cc(OC)ccc4OC)cccc3c(N)c2C1=O`, for which the concentration in solution (solubility) came to 2 µM (≈ 0.811 µg/mL).

For the molecule `CCCN1Cc2nc3c(CC(C)(C)C)cccc3c(N)c2C1=O`, the concentration in solution (solubility) came to 3.4 µM (≈ 1.06 µg/mL). Compared with the last molecule, the solubility is about 1.7-fold higher.

As to `CCCNC(=O)c1nnc2c(CC(C)C)cccc2c1N`, the solubility (commonly the concentration that dissolves in the medium under given conditions) came out at 4.6 µM (≈ 1.32 µg/mL). In the case of `CCCNC(=O)c1nnc2c(-c3ccccc3)cccc2c1N` it was 9.5 µM (≈ 2.91 µg/mL); in that of `CCCNC(=O)c1nnc2c(-c3cc(C)ccc3C)cccc2c1N`, 1.4 µM (≈ 0.468 µg/mL). In the case of `CCCNC(=O)c1nnc2c(-c3cccc(C)c3)cccc2c1N` it was 8 µM (≈ 2.56 µg/mL); in that of `CCCNC(=O)c1nnc2c(-c3ccccc3C)cccc2c1N`, 26.8 µM (≈ 8.59 µg/mL).

`CCCNC(=O)c1nnc2c(-c3ccc(C)cc3C)cccc2c1N` yielded a solubility of 0.8 µM (≈ 0.268 µg/mL). Against the preceding molecule, the solubility is about 34-fold lower.

On to `CCCNC(=O)c1nnc2c(-c3cc(C)cc(C)c3)cccc2c1N`, for which the solubility is 0.8 µM (≈ 0.268 µg/mL). That is a sub-micromolar value.

`COc1ccc(OC)c(-c2cccc3c(N)c(C(=O)NC4CC4)nnc23)c1` displayed a solubility of 8.9 µM (≈ 3.24 µg/mL).

`COc1ccc(OC)c(-c2cccc3c(N)c(C(=O)NC4CC(C)C4)nnc23)c1` (stereo not given) gave a solubility of 1.8 µM (≈ 0.706 µg/mL). As for `COc1ccc(OC)c(-c2cccc3c(N)c(C(=O)NC4CCC4)nnc23)c1`, the figure is 4.3 µM (≈ 1.63 µg/mL); as for `CCNC(=O)c1nnc2c(-c3cc(OC)ccc3OC)cccc2c1N`, 8.2 µM (≈ 2.89 µg/mL).

`COc1ccc(OC)c(-c2cccc3c(N)c(C(=O)NC(C)C)nnc23)c1` registered a solubility of 4.7 µM (≈ 1.72 µg/mL). As for `COc1ccc(OC)c(-c2cccc3c(N)c(C(=O)NCCC(F)(F)F)nnc23)c1`, the figure is 2.8 µM (≈ 1.18 µg/mL); as for `COc1ccc(OC)c(-c2cccc3c(N)c(C(=O)NCCCO)nnc23)c1`, 11 µM (≈ 4.21 µg/mL). In the case of `CNC(=O)c1nnc2c(-c3cc(OC)ccc3OC)cccc2c1N` it was 2.6 µM (≈ 0.88 µg/mL); in that of `CCC(C)NC(=O)c1nnc2c(-c3cc(OC)ccc3OC)cccc2c1N` (stereo not given), 1.2 µM (≈ 0.457 µg/mL). As for `COc1ccc(OC)c(-c2cccc3c(N)c4c(nc23)CN(C2CC(C)C2)C4=O)c1` (stereo not given), the solubility stood at 0.9 µM (≈ 0.363 µg/mL). As for `COc1ccc(OC)c(-c2cccc3c(N)c4c(nc23)CN(C2CCCC2)C4=O)c1`, the figure is 2.9 µM (≈ 1.17 µg/mL); as for `CCN1Cc2nc3c(-c4cc(OC)ccc4OC)cccc3c(N)c2C1=O`, 0.5 µM (≈ 0.182 µg/mL); as for `COc1ccc(OC)c(-c2cccc3c(N)c4c(nc23)CN(C)C4=O)c1`, 0.8 µM (≈ 0.28 µg/mL). Turning to `COc1ccc(OC)c(-c2cccc3c(N)c4c(nc23)CN(C2CCC2)C4=O)c1`, the concentration in solution (solubility) came to 2.3 µM (≈ 0.896 µg/mL). Against the preceding molecule, the solubility is about 2.9-fold higher.

Regarding `COc1ccc(OC)c(-c2cccc3c(N)c4c(nc23)CN(C2CC2)C4=O)c1`, the concentration in solution (solubility) came to 4.9 µM (≈ 1.84 µg/mL).

Molecule `COc1ccc(OC)c(-c2c(F)ccc3c(N)c(C(=O)NC4CC4)nnc23)c1` came in with a solubility of 8.8 µM (≈ 3.37 µg/mL). In the case of `CCCNC(=O)c1nnc2c(-c3cc(OC)ccc3OC)c(F)ccc2c1N` it was 3.3 µM (≈ 1.27 µg/mL); in that of `COc1ccc(OC)c(-c2c(F)ccc3c(N)c(C(=O)NC4CCC4)nnc23)c1`, 2.8 µM (≈ 1.11 µg/mL); in that of `CCNC(=O)c1nnc2c(-c3cc(OC)ccc3OC)c(F)ccc2c1N`, 5 µM (≈ 1.85 µg/mL).

`COc1ccc(OC)c(-c2c(F)ccc3c(N)c(C(=O)NC(C)C)nnc23)c1` gave a solubility of 7.8 µM (≈ 3 µg/mL).

`COc1ccc(OC)c(-c2c(F)ccc3c(N)c4c(nc23)CN(C2CCC2)C4=O)c1` gave a solubility of 1 µM (≈ 0.407 µg/mL).

For the molecule `COc1ccc(OC)c(-c2c(F)ccc3c(N)c4c(nc23)CN(C2CC2)C4=O)c1`, the concentration in solution (solubility) was 1 µM (≈ 0.393 µg/mL). Regarding `CCN1Cc2nc3c(-c4cc(OC)ccc4OC)c(F)ccc3c(N)c2C1=O`, the solubility stood at 0.3 µM (≈ 0.114 µg/mL).

The molecule `CCCNC(=O)c1nnc2c(-c3cnc(OC)nc3OC)cccc2c1N` yielded a solubility of 1.9 µM (≈ 0.7 µg/mL). In the case of `CCCNC(=O)c1nnc2c(-c3cnccc3OC)cccc2c1N` it was 28.1 µM (≈ 9.48 µg/mL). As for `CCCNC(=O)c1nnc2c(-c3cc(C)ccc3OC)cccc2c1N`, the figure is 8.3 µM (≈ 2.91 µg/mL); as for `COc1ccc(-c2c(F)ccc3c(N)c(C(=O)NC4CC4)nnc23)c(OC)n1`, 2 µM (≈ 0.767 µg/mL); as for `COc1cc(-c2c(F)ccc3c(N)c(C(=O)NC4CC4)nnc23)c(OC)nn1`, 6.2 µM (≈ 2.38 µg/mL). As for `COc1ncc(C)cc1-c1cccc2c(N)c(C(=O)NC3CC3)nnc12`, the figure is 10.8 µM (≈ 3.77 µg/mL); as for `CCCNC(=O)c1nnc2c(-c3cc(OC)ccc3OC)cccc2c1N` [AZD6280], 3.9 µM (≈ 1.43 µg/mL). In the case of `CCCNC(=O)c1nnc2c(-c3c(F)cccc3OC)cccc2c1N` [AZD7325], the concentration in solution (solubility) was 7.6 µM (≈ 2.69 µg/mL).
